Data as given in US20160201063A1, “EPIGENETIC REGULATORS OF FRATAXIN” (RANA THERAPEUTICS, INC., priority 2013, published 2016).
Where a name gives a salt, the structure may show the parent alone.

Assays:
FXN mRNA [1] = assay: Gapmer screen in differentiated myotubes, FXN mRNA levels; type: cell-based; conditions: 4 days after transfection
Excerpt: Subsequently, various oligos targeting ACTL6A, EID1, HIC1, JUND, KAT2A, PRKCD, and YEATS4 were screened in differentiated myotubes for FXN mRNA levels. Measurements were taken 4 days after transfection.

FXN mRNA [2] = assay: Screen of epigenetic inhibitors in GM0321 normal fibroblasts, FXN RNA levels; type: cell-based, human; conditions: for fold induction at 1 µM / fold induction at 5 µM: Homo sapiens, Fibroblast, 72 h; for fold induction at 1 µM: read-out: FXN mRNA fold change, 321B 1 uM; for fold induction at 5 µM: read-out: FXN mRNA fold change, 321B 5 uM
FXN mRNA [3] = assay: Screen of library of eighty epigenetic inhibitors in GM03816 FRDA diseased fibroblasts, FXN mRNA fold change; type: cell-based, human; conditions: for fold induction at 1 µM / fold induction at 5 µM: Homo sapiens, Fibroblast, 72 h; for fold induction at 1 µM: read-out: 3816 1 uM (FXN mRNA fold change); for fold induction at 5 µM: read-out: 3816 5 uM (FXN mRNA fold change)
Procedure: FXN RNA levels are indicated on the y-axis and the inhibitors used at both 1 μM and 5 μM are shown on the x-axis.
A screen of a library of eighty epigenetic inhibitors (Cayman Chemical) was performed in GM03816 FRDA fibroblasts to identify epigenetic regulators that upregulate FXN expression.

[4] = GM0321 normal fibroblasts, 1 uM inhibitor, 3 days of treatment
[5] = GM0321 normal fibroblasts, 5 uM inhibitor, 3 days of treatment
[6] = GM03816 FRDA diseased fibroblasts, 1 uM inhibitor, 3 days of treatment
[7] = GM03816 FRDA diseased fibroblasts, 5 uM inhibitor, 3 days of treatment

Molecule	FXN mRNA fold change, 321B 1 uM (FXN mRNA [2]; [4])	FXN mRNA fold change, 321B 5 uM (FXN mRNA [2]; [5])	3816 1 uM (FXN mRNA fold change) (FXN mRNA [3]; [6])	3816 5 uM (FXN mRNA fold change) (FXN mRNA [3]; [7])	fold induction at 1 µM (FXN mRNA [2]; [4])	fold induction at 5 µM (FXN mRNA [2]; [5])	fold induction at 1 µM (FXN mRNA [3]; [6])	fold induction at 5 µM (FXN mRNA [3]; [7])	other results
JUND-6: LNA/DNA gapmer to human JUND, SEQ ID NO 66, TGGCTCGTCCTTGAG (LNA modifications, chemistry not fully specified)									FXN mRNA level (FXN mRNA [1]): upregulation of FXN mRNA
HIC1-1: LNA/DNA gapmer to human HIC1, SEQ ID NO 70, GGCCGGTGTAGATGA (LNA modifications, chemistry not fully specified)									FXN mRNA level (FXN mRNA [1]): upregulation of FXN mRNA
YEATS4-5: LNA/DNA gapmer to human YEATS4, SEQ ID NO 87, TCGAATTCACCCCAT (LNA modifications, chemistry not fully specified)									FXN mRNA level (FXN mRNA [1]): upregulation of FXN mRNA
KAT2A-05: LNA/DNA gapmer to human KAT2A, SEQ ID NO 35, CATTGACCAGCTCCA (LNA modifications, chemistry not fully specified)									FXN mRNA level (FXN mRNA [1]): upregulation of FXN mRNA
ACTL6A-04: LNA/DNA gapmer to human ACTL6A, SEQ ID NO 4, GCCCAGTAGAACGAC (LNA modifications, chemistry not fully specified)									FXN mRNA level (FXN mRNA [1]): upregulation of FXN mRNA
(−)-Neplanocin A	0.8734	1.105	1.067	0.943					
CCOC(=O)c1ccnc(C(=O)OCC)c1 [2,4-DPD]	0.877	0.7372	1.179	0.9456					
CCOC(=O)CCNc1cc(N2CCc3ccccc3CC2)nc(-c2ccccn2)n1.Cl [GSK-J4 (hydrochloride)]	1.002	0.8744	0.927	0.8762					
COc1ccccc1S(=O)(=O)Nc1ccc2c(c1)CN(C)C(=O)N2 [PFI-1]	0.9577	0.9071	0.9175	0.923					
CC(NC(=O)c1ccccc1/N=C/c1c(O)ccc2ccccc12)c1ccccc1 (centres unmarked) [Sirtinol]					0.81	1.02	1.06	0.92	
Oxamflatin	0.5612	0.2391	0.3506	0.108					
O=c1oc2c(O)c(O)cc3c(=O)oc4c(O)c(O)cc1c4c23 [Ellagic Acid]					0.675	0.248	0.788	0.189	
COc1cc2c(NC3CCN(C)CC3)nc(N3CCCN(C)CC3)nc2cc1OCCCN(C)C [UNC0224, 7-[3-(Dimethylamino)propoxy]-2-(hexahydro-4-methyl-1H-1,4-diazepin-1-yl)-6-methoxy-N-(1-methyl-4-piperidinyl)-4-quinazolinamine, reference compound]					0.876	0.875	0.958	0.656	
Oc1cc(O)cc(/C=C/c2ccc(O)c(O)c2)c1 [Picetannol]	0.5008	0.538	0.7867	0.5435					
O=C(/C=C/c1ccc(O)cc1)c1ccc(O)cc1O [Isoliquiritigenin]					1.16	1.29	1.27	0.963	
EID1-04: LNA/DNA gapmer to human EID1, SEQ ID NO 12, AGCTCTTCGATAAAA (LNA modifications, chemistry not fully specified)									FXN mRNA level (FXN mRNA [1]): upregulation of FXN mRNA
Nc1cc(F)ccc1NC(=O)c1ccc(CNC(=O)/C=C/c2cccnc2)cc1 [Chidamide]					0.835	0.799	0.924	0.968	
Nc1ncnc2c1ncn2[C@@H]1O[C@H](C[C@@H](N)CC[C@H](N)C(=O)O)[C@@H](O)[C@H]1O [Sinefungin, reference compound]					0.551	0.821	0.895	0.862	
O=C(O)c1cccc2ccccc12 [1-Naphthoic Acid]					0.819	0.72	1.05	0.869	

Molecule	FXN mRNA fold change, 321B 1 uM (FXN mRNA [2]; [4])	FXN mRNA fold change, 321B 5 uM (FXN mRNA [2]; [5])	3816 1 uM (FXN mRNA fold change) (FXN mRNA [3]; [6])	3816 5 uM (FXN mRNA fold change) (FXN mRNA [3]; [7])	fold induction at 1 µM (FXN mRNA [2]; [4])	fold induction at 5 µM (FXN mRNA [2]; [5])	fold induction at 1 µM (FXN mRNA [3]; [6])	fold induction at 5 µM (FXN mRNA [3]; [7])	other results
O=C(O)CCNc1cc(N2CCc3ccccc3CC2)nc(-c2ccccn2)n1 [GSK-J1 (sodium salt)]	0.9779	0.9423	0.8866	0.7892					
ACTL6A-02: LNA/DNA gapmer to human ACTL6A, SEQ ID NO 2, ATCGCCATCTATTTC (LNA modifications, chemistry not fully specified)									FXN mRNA level (FXN mRNA [1]): upregulation of FXN mRNA
O=C(O)CNC(=O)C(=O)O [N-Oxalylglycine]						0.68	0.708	1.03	
O=c1ncccn1[C@@H]1O[C@H](CO)[C@@H](O)[C@H]1O [Zebularine]					1.07	1.03	1.07	1.09	
COC(=O)CNC(=O)C(=O)OC [DMOG]	0.7317	0.9433	0.9685	0.9131					
O=C(CCCCCCC(=O)NO)NO [Suberohydroxamic Acid]					0.959	1.02	1.18	0.982	
O=C(/C=C/c1cccc(C(=O)NO)c1)NO [CBHA]	0.7208	0.4875	0.4678	0.1327					
CC(C(=O)Nc1cccc(/N=C/c2c(O)ccc3ccccc23)c1)c1ccccc1 (centres unmarked) [Salermide]					1.06	0.815	1.16	0.996	
N#C/C(=C\c1ccc(-c2cc(Cl)ccc2Cl)o1)C(=O)Nc1cccc2ncccc12 [AGK2]	1.115	1.053	1.206	1.101					
CCC(=O)CCCCC[C@@H]1NC(=O)[C@H]2CCCCN2C(=O)[C@H]([C@@H](C)CC)NC(=O)[C@H](Cc2cn(OC)c3ccccc23)NC1=O [Apicidin]									fold induction at 1 µM (FXN mRNA [2]): 0.119; fold induction at 5 µM (FXN mRNA [2]): 0.397; fold induction at 1 µM (FXN mRNA [3]): 0.0791; fold induction at 5 µM (FXN mRNA [3]): 0.435
Cc1ccc(C(=O)Nc2ccc(S(=O)(=O)O)c3cc(S(=O)(=O)O)cc(S(=O)(=O)O)c23)cc1NC(=O)c1cccc(NC(=O)Nc2cccc(C(=O)Nc3cc(C(=O)Nc4ccc(S(=O)(=O)O)c5cc(S(=O)(=O)O)cc(S(=O)(=O)O)c45)ccc3C)c2)c1 [Suramin]									fold induction at 5 µM (FXN mRNA [2]): 0.772; fold induction at 1 µM (FXN mRNA [3]): 0.954; fold induction at 5 µM (FXN mRNA [3]): 0.835
NC(=O)c1cccc(N)c1 [3-amino Benzamide]	1.089	1.365	1.289	1.357					
COCCCn1c(N)c(C(=O)NC2CCCC2)c2nc3ccccc3nc21 [CAY10591]	0.9828	1.437	1.311	1.377					
Nc1ncnc2c1ncn2[C@@H]1O[C@H](CSCC[C@H](N)C(=O)O)[C@@H](O)[C@H]1O [S-Adenosylhomocysteine]					0.975	0.619	1.07	0.886	
NC(=O)[C@H](CCCN=C(N)CCl)NC(=O)c1ccccc1 [Cl-Amidine]	0.9432	0.9931	1.153	0.9028					
CCCC(=O)[O-].[Na+] [Sodium Butyrate]									fold induction at 1 µM (FXN mRNA [2]): 1.06; fold induction at 5 µM (FXN mRNA [2]): 0.707; fold induction at 1 µM (FXN mRNA [3]): 1.03; fold induction at 5 µM (FXN mRNA [3]): 1.16
NC(=O)c1ccc(I)c([N+](=O)[O-])c1 [BSI-201]					1.03	0.985	1.13	0.844	
COc1ccc(Cn2ccc3ccc(C(=O)NO)cc32)cc1 [PCI 34051]	0.9743	1.306	1.084	1.209					
O=C(O)C(Cc1c[nH]c2ccccc12)N1C(=O)c2ccccc2C1=O (centres unmarked) [RG-108]		0.6222	1.001	0.8966					
